No end group written: not given here. *: point of attachment. pNA = O=[N+]([O-])c1ccc(N*)cc1
Tests used:
Assay type in all cases: biochemical
CtHtrA [1] = biological target: T1, CtHtrA (Chlamydia trachomatis serovar D, UniProt P18584); experiment: Activation of CtHtrA cleavage of Bcas1 substrate by added activator; conditions: substrate Bcas1 (MCA-ENLHLPLPIIF-DNP), fluorimetric, 37°C
T1 construct: His-tag; made in house; host or cells: E. coli BL21 (DE3), plasmid pETHtrA
T1 sequence (P18584 17-497): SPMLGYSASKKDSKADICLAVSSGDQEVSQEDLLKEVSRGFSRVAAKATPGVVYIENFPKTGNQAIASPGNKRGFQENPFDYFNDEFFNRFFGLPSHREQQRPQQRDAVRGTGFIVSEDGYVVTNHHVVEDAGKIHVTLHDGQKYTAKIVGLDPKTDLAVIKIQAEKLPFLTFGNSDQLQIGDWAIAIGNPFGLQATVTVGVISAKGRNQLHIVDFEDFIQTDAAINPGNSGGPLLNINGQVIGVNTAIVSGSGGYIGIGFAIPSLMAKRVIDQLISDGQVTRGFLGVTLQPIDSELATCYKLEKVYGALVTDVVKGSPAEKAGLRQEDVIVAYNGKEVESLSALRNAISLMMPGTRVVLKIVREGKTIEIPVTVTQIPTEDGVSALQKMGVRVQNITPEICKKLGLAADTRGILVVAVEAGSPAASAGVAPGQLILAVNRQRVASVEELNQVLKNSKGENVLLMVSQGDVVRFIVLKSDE
Description: To determine if the addition of a second peptide to the protease assays could activate or increase CtHtrA proteolysis, two activator peptides were tested in the CtHtrA cleavage of the model ß-casein peptide substrate Bcas1. The first was based on the ß-casein C-terminal sequence (Act1: NH2-VLGPVRGPFPIIV-OH) and the second on insulin b chain C-terminal sequence (Act2: NH2-CGELGFFYTP-OH).
Finally, in order to determine if the 24-mer (highest amount with MOMP protein, or Act1), or 12-mer, or both, corresponds to enhanced protease activity, the incubations of CtHtrA and these potential in vivo activators were used for protease assays with the Bcas1 substrate (Fig. 6). […] The presence of the majority of CtHtrA as higher order oligomers correlated with an increased rate of proteolysis for CtHtrA, particularly when these oligomers were predominately 24-mers.
The purified recombinant protein was examined by Coomassie stained polyacrylamide gels and activity was checked using ß-casein cleavage assays prior to use in peptide assays. Briefly, this involved incubating 2 µg of the protease with 10 µg of ß-casein in 50 mM Tris pH 7.0, 20 mM MgCl2 for 2 h prior to examining the assays by SDS PAGE (ß-casein and protease only controls were always conducted). Protease assays using peptides were conducted using custom synthesised peptides (Mimotopes). […] Protease assays using pNA labelled peptides were conducted using the xMARK Microplate spectrophotometer (Bio-Rad) at 405 nm, incubated at 37°C, with a reading taken every 10 s for 30 min. The maximum slope over a minimum of 8 readings was used for the data analysis. […] The assays were excited at 340 nm and emission was detected at 405 nm with a gain of 1000, the assays were monitored every 20 s or at the minimum cycle time for up to 40 min. […] The assay results shown for the fluorescent compounds have been normalised for the amount of fluorescent emission detected using a standard curve of known concentrations of the MCA fluorophore under the identical assay conditions. […]

CtHtrA [2] = biological target: T1, CtHtrA; experiment: Oligomerisation assay (glutaraldehyde crosslinking, 3-8% TrisAcetate gel, silver stain); conditions: wild type CtHtrA 2 mg/ml, 100 mM sodium phosphate pH 7.0, 10 mins at 37°C, 0.5% glutaraldehyde fixation
Description: E. coli DegP proteolysis activation involves the transition from resting hexamers via trimers to 12- and 24-mers following the peptide activator binding to the PDZ1 binding cleft. CtHtrA oligomer formation induced by Act1 addition was examined after incubation for 10 mins at 37°C. The wild type and mutant proteins were incubated with either the ß-casein based activator peptide (Act1), or with whole insulin (intact), or in the absence of any activator as a control. CtHtrA incubated in the absence of any added activators formed 24-mers with some hexamers detected after 10 mins (Fig. 5). […] The R299W mutant was present as hexamer and 24-mer in the control with no activator. […] The L302N mutant was not detected in any higher oligomeric form under any conditions. L302N was detected as faint hexamer and trimer but mostly monomer under all tested conditions (not visible on these gels). […] I365D was detected as hexamers, trimers, 12-mers, and some 24-mers when incubated in the absence of activators.
The oligomerisation of HtrA into 12- and 24-mer complexes has been independently detected for E. coli HtrA (DegP). The oligomerisation of HtrA (DegP) was triggered by peptides from digested ß-casein [18]. Assays to detect whether CtHtrA and site directed mutant protein oligomerisation was triggered by substrates were conducted essentially as previously described (Merdanovic et al., 2010). Briefly, 2 mg/ml protein solutions in 100 mM sodium phosphate buffer pH 7.0 were pre-incubated to the required temperature. The ligands (activator peptide, or insulin) were added and at 10 min, and the proteins were fixed using 0.5% glutaraldehyde. Samples were fixed at room temperature for 2 min prior to addition of 1 M Tris pH 7.5 to remove any excess glutaraldehyde. Samples were incubated for another 10 min at room temperature prior to addition of SDS PAGE reducing loading buffer. The protein samples were examined on 3–8% TrisAcetate gradient polyacrylamide gels (Novex, Invitrogen) by silver staining. The proteins used in this study were not initially denatured by treatment with urea as, the refolding, formation of oligomers, and protease activity was never successfully detected with denatured CtHtrA. All assays were conducted in duplicate on three separate occasions with at least two gels of each experiment completed for each assay condition.

CtHtrA [3] = biological target: T1, CtHtrA; experiment: MS and MS-MS analysis of peptide cleavage products; conditions: peptide 150 µM digested with CtHtrA (71 µg); sites MCA-ENLH↓LPLPI↓IF-DNP
Description: Bcas1 and Act1 peptides (150 µM concentration) digested with CtHtrA (71 µg) were analysed by online LC/MS/MS using a QStar Pulsar I (Applied Biosystems) in […] mode. Data acquired were converted into mzXML format using proteowizard (v2) and searched using ([…], the global proteome machine, ftp://ftp.thegpm.org/fasta/cRAP), against CtHtrA and Act1 and Bcas1 peptide sequences with an included decoy database of the reverse sequence for each protein. The search also included potential mass modifications accounting for the additional […] moieties on the N and C peptide termini, respectively. Matches with an expected ratio of <1 were considered identified. All raw data and mass spectra can be made available on request.

CtHtrA [4] = biological target: T1, CtHtrA; experiment: Protease assay and kinetic analysis with pNA-labelled peptide substrates; conditions: pNA peptide as substrate, absorbance 405 nm, 37°C; for Vmax: reading every 10 s for 30 min
Description: A series of peptide substrates were then designed based on the cleavage sites previously identified in ß-casein [3], PICS results, previously published substrates for E. coli DegP [22], and the REPLi library screening results. These peptides were assayed against CtHtrA and kinetic analysis was conducted (Table 2). […] Generally, peptides with only 4 residues or less were not cleaved. […] The preference for K at P3 implies a salt bridge may be involved in substrate coordination in the CtHtrA active site in the substrate pocket or subsite S3. In a direct comparison between MFRLI-pNA and MFQLI-pNA, R was clearly the most preferred. […] The Km for each of these, however, was at least an order of magnitude higher than the Km for MFKLI-pNa. The results from individually synthesised peptides (Table 2) and the peptides sourced from the REPLi library (Table 1) were consistent in that non-polar sequences are most preferred. […] (Fig. S3).
The purified recombinant protein was examined by Coomassie stained polyacrylamide gels and activity was checked using ß-casein cleavage assays prior to use in peptide assays. Briefly, this involved incubating 2 µg of the protease with 10 µg of ß-casein in 50 mM Tris pH 7.0, 20 mM MgCl2 for 2 h prior to examining the assays by SDS PAGE (ß-casein and protease only controls were always conducted). Protease assays using peptides were conducted using custom synthesised peptides (Mimotopes). The peptides were purified to 95% purity (or greater) and were typically resuspended in 50% isopropanol, although some peptides required 100% DMSO. Protease assays using pNA labelled peptides were conducted using the xMARK Microplate spectrophotometer (Bio-Rad) at 405 nm, incubated at 37°C, with a reading taken every 10 s for 30 min. The maximum slope over a minimum of 8 readings was used for the data analysis. Other peptides were labelled with 7-methoxycoumarin-4-acetic acid (MCA, fluorophore) and 2,4-dinitrophenyl (DNP, quencher). The protease assays using these peptides were conducted in black plates at 37°C using the POLARstar Optima (BMG Labtech). The assays were excited at 340 nm and emission was detected at 405 nm with a gain of 1000, the assays were monitored every 20 s or at the minimum cycle time for up to 40 min. The Omega software was used to calculate the maximum rate from a minimum of 6 time points for each assay. The REPLi library of peptides (Mimotopes, Melbourne, Australia) was also assayed with CtHtrA in the POLARstar Optima using similar assay conditions to those described above. Substrate only and protease only assay controls were conducted for every experiment and protease assays were typically conducted in triplicate on at least two different days. The assay results shown are the maximal rate observed from three or more different assays and adjusted for protein concentration. The assay results shown for the fluorescent compounds have been normalised for the amount of fluorescent emission detected using a standard curve of known concentrations of the MCA fluorophore under the identical assay conditions. All of the peptides used in this work were synthesised commercially to 95% purity or greater (Mimotopes, Melbourne, Australia). All protease assays were conducted minimally in duplicate on three separate occasions.

CtHtrA [5] = biological target: T1, CtHtrA; experiment: Protease assay with MCA/DNP-labelled fluorimetric peptides (REPLi library); conditions: peptide based on the optimal activity for human HtrA2; data not shown
Description: To further refine the CtHtrA substrate specificity, the REPLi peptide library (Mimotopes, Melbourne) was screened. The REPLi library peptides consist of a randomised tripeptide sequence flanked on either side by two GGG tripeptide sequences. The N-terminus of each peptide was labelled with a 7-methoxycoumarin (MCA) fluorophore, and the C-terminus was labelled with a 2,4-dinitrophenyl (DNP) fluorescent quencher. The peptides were pooled according to structural similarity and selected wells with high activity were then rescreened as individual peptides to identify the peptides cut by CtHtrA (Fig. S2, all wells where CtHtrA activity was observed). […] Cleavage at the glycine or terminal fluorophore or quenchers was never detected for any peptide. […]
The purified recombinant protein was examined by Coomassie stained polyacrylamide gels and activity was checked using ß-casein cleavage assays prior to use in peptide assays. […] Protease assays using pNA labelled peptides were conducted using the xMARK Microplate spectrophotometer (Bio-Rad) at 405 nm, incubated at 37°C, with a reading taken every 10 s for 30 min. The maximum slope over a minimum of 8 readings was used for the data analysis. […] The assays were excited at 340 nm and emission was detected at 405 nm with a gain of 1000, the assays were monitored every 20 s or at the minimum cycle time for up to 40 min. […]

Row | Substance | CtHtrA oligomer formation induced by activator (CtHtrA [2]) | Km (CtHtrA [4]) [µM] | Vmax (CtHtrA [4]) | further results
1 | H-LAHMMNCGARMIF-OH [PmpC, C-terminal 13 residues of outer membrane ß-barrel PmpC] | activated the formation of 12-mer |  |  | effect of activator on rate of CtHtrA proteolysis of Bcas1 (CtHtrA [1]): did not increase the rate of proteolysis of Bcas1
2 | MCA-ENLHLPLPIIF-DNP [Bcas1, model ß-casein peptide substrate based on a ß-casein cleavage site] |  |  |  | cleavage sites observed by LC-MS-MS (CtHtrA [3]): Two cleavage sites
3 | H-HDVLSPSLDEINVP-OH [PyKinC] | activated mainly trimer formation with some 12-mer present |  |  | 
4 | H-AESNFKMLEIEAE-OH [CtL0043, C-terminal 13 residues of outer membrane ß-barrel CtL0043] | activated mainly trimer formation with some 12-mer present |  |  | 
5 | MFKLI-pNA |  | 62 | 4.046 mM sec^−1, µM CtHtrA^−1 | Kcat/Km (CtHtrA [4]): 1084.8 M⁻¹ s⁻¹
6 | MFRLI-pNA [pNA peptide substrate, P3 modification] |  | 2910 | 18.53 mM sec^−1, µM CtHtrA^−1 | Kcat/Km (CtHtrA [4]): 106.22 M⁻¹ s⁻¹
7 | MCA-IRRVSYSF-DNP |  |  |  | viability as substrate for CtHtrA (CtHtrA [5]): not a viable substrate
8 | DPMFKLI-pNA [Model E. coli substrate, I at P1] |  | 527 | 10.340 mM sec^−1, µM CtHtrA^−1 | 

— PMC3169616, “Unique Residues Involved in Activation of the Multitasking Protease/Chaperone HtrA from Chlamydia trachomatis” (PLoS ONE, 2011)
